From patent publication US10358436B2, “Kinase inhibitors and method of treating cancer” (University Health Network, priority 2010, dated 2019) come the findings set out here.

Where a name gives a salt, the structure may show the parent alone. Read-outs that look alike come from different tables or passages of the source.

Common to all, as to type: biochemical
The target in one assay is human PLK4 (Homo sapiens (Human), UniProt O00444). Description: PLK4 inhibition assay (indirect ELISA). Background: In an ELISA, binding on a coated surface is turned into a signal by an enzyme label.
Chain of human PLK4 (O00444 1-391): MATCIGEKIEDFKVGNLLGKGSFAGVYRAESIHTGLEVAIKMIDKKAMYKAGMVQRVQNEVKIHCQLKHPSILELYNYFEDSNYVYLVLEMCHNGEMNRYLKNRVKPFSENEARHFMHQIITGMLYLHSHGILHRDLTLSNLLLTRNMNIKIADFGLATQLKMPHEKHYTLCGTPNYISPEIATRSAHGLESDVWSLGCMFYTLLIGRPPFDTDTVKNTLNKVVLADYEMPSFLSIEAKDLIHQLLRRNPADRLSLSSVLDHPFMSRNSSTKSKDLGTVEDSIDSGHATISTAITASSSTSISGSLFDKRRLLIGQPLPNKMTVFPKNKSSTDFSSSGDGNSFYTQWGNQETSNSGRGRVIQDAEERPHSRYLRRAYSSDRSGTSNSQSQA
A further assay concerns the target Aurora A (Homo sapiens (Human), UniProt O14965). Description: Aurora A inhibition assay (Z-Lyte).
The target of another assay is Aurora B (Homo sapiens (Human), UniProt Q96GD4). In words: Aurora B inhibition assay (Z-Lyte).
Chain of Aurora B (Q96GD4 whole entry): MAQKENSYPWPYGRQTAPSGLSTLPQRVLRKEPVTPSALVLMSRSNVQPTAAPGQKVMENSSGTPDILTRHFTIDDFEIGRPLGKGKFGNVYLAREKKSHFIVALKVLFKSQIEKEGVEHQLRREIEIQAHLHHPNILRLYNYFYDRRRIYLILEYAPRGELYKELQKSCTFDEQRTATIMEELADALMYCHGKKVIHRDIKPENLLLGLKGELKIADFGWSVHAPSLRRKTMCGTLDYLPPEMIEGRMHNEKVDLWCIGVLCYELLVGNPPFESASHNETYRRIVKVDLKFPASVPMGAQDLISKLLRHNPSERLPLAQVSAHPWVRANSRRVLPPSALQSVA

Chain of Aurora A (O14965 whole entry): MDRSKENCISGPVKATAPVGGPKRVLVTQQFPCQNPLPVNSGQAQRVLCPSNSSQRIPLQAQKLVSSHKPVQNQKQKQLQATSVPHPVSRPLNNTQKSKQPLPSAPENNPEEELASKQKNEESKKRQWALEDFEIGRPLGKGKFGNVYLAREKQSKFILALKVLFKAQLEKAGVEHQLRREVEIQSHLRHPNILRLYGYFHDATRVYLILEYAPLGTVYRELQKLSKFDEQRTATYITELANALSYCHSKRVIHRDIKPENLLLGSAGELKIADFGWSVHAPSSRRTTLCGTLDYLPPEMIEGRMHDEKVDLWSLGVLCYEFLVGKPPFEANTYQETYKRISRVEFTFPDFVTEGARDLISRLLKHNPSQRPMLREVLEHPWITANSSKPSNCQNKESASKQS
Experimental for Aurora B: Aurora B inhibition was determined using the Z-Lyte assay kit from Invitrogen. […] The % inhibition values were determined according to the manufacturer's directions and IC50 values were obtained using a non-linear 4 point logistic curve fit (XLfit4, IDBS)
Experimental for human PLK4: PLK4 activity was measured using an indirect ELISA detection system. […] The colourimetric reaction was allowed to continue for 5 minutes, followed by addition of stop solution (0.5 N sulphuric acid), and quantified by detection at 450 nm with either a monochromatic or filter based plate reader (Molecular Devices M5 or Beckman DTX880, respectively).
Compounds were pre-incubated in the presence of enzyme for 15 minutes prior to addition of ATP and the activity remaining quantified using the above described activity assay. […] The IC50 value was determined using a non-linear 4 point logistic curve fit (XLfit4, IDBS) with the formula; (A+(B/(1+((x/C)^D)))), where A=background value, B=range, C=inflection point, D=curve fit parameter.

Consider `CN(C)Cc1cccc(/C=C/c2n[nH]c3cc([C@@H]4C[C@@]45C(=O)N(CC(N)=O)c4ccccc45)ccc23)c1` (relative stereo) [Example A164, 2-((1R*,2S*)-(E)-2-(3-(3-((dimethylamino)methyl)styryl)-1H-indazol-6-yl)-2′-oxospiro[cyclopropane-1,3′-indoline]-1′-yl)acetamide 2,2,2-trifluoroacetate], for which the IC50 at human PLK4 (read-out: PLK4 IC50 Ranges) and on Aurora B (read-out: Aurora B IC50 Ranges) was under 100 nM each time. Moreover, at Aurora A, the inhibition (as a rule, the percentage by which the read-out fell short of the control) at 1 µM is over 50%.
As to `COc1ccc2c(c1)[C@]1(C[C@H]1c1ccc3c(-c4ccc(N5CCN(C)CC5)cc4)n[nH]c3c1)C(=O)N2C` (relative stereo) [Example A100, (1R*,2S*)-5′-methoxy-1′-methyl-2-(3-(4-(4-methylpiperazin-1-yl)phenyl)-1H-indazol-6-yl)spiro[cyclopropane-1,3′-indolin]-2′-one 2,2,2-trifluoroacetate], the half-maximal inhibitory concentration (IC50) at human PLK4 (read-out: PLK4 IC50 Ranges) and on Aurora B (read-out: Aurora B IC50 Ranges) was under 100 nM in each case. Also, the inhibition at 1 µM against Aurora A was under 50%.
Turning to `CN1CCN(c2ccc(-c3n[nH]c4cc([C@@H]5C[C@@]56C(=O)Nc5ccc(C(F)(F)F)cc56)ccc34)cc2)CC1` (relative stereo) [Example A170, (1R*,2S*)-2-(3-(4-(4-methylpiperazin-1-yl)phenyl)-1H-indazol-6-yl)-5′-(trifluoromethyl)spiro[cyclopropane-1,3′-indolin]-2′-one 2,2,2-trifluoroacetate], the half-maximal inhibitory concentration (IC50) (in general, the point on the concentration scale where inhibition reaches its midpoint) on human PLK4 (read-out: PLK4 IC50 Ranges) is 100 to 1000 nM.
With `CN1CCN(c2ccc(/C=C/c3n[nH]c4cc([C@@H]5C[C@@]56C(=O)Nc5ccccc56)ccc34)cn2)CC1` (relative stereo) [Example A157, (1R*,2S*)-2-(3-((E)-2-(6-(4-methylpiperazin-1-yl)pyridin-3-yl)vinyl)-1H-indazol-6-yl)spiro[cyclopropane-1,3′-indolin]-2′-one bis-2,2,2-trifluoroacetate], at human PLK4 (read-out: PLK4 IC50 Ranges), the IC50 was under 100 nM. The same compound returned an inhibition at 1 µM on Aurora A of over 50%.
For the compound `O=C1Nc2ccccc2[C@]12C[C@H]2c1ccc2c(/C=C/c3ccc(N4CCNCC4)cc3)n[nH]c2c1` (relative stereo) [Example A91, (1R*,2S*)-(E)-2-(3-(4-(piperazin-1-yl)styryl)-1H-indazol-6-yl)spiro[cyclopropane-1,3′-indolin]-2′-one 2,2,2-trifluoroacetate], the half-maximal inhibitory concentration (IC50) on human PLK4 and on Aurora B (read-out: Aurora B IC50 Ranges) was under 100 nM in each case. Besides, the inhibition at 1 µM at Aurora A was over 50%.
For `CN(C)Cc1ccc(/C=C/c2n[nH]c3cc([C@@H]4C[C@@]45C(=O)Nc4ncccc45)ccc23)cc1` (relative stereo) [Example A172, (1R*,2S*)-(E)-2-(3-(4-((dimethylamino)methyl)styryl)-1H-indazol-6-yl)spiro[cyclopropane-1,3′-pyrrolo[2,3-b]pyridin]-2′(1′H)-one 2,2,2-trifluoroacetate], the IC50 on human PLK4 (read-out: PLK4 IC50 Ranges) and at Aurora B (read-out: Aurora B IC50 Ranges) was under 100 nM throughout.
Regarding `CN1CCN(c2ccc(-c3n[nH]c4cc([C@@H]5C[C@@]56C(=O)Nc5ccc(N)cc56)ccc34)cc2)CC1` (relative stereo) [Example A86, (1R*,2S*)-5′-amino-2-(3-(4-(4-methylpiperazin-1-yl)phenyl)-1H-indazol-6-yl)spiro[cyclopropane-1,3′-indolin]-2′-one], the half-inhibitory concentration (IC50) on human PLK4 (read-out: PLK4 IC50 Ranges) is under 100 nM; on Aurora B (read-out: Aurora B IC50 Ranges), 100 to 1000 nM. Further, the inhibition at 1 µM at Aurora A was over 50%.
On the same counts, the results for `COc1ccc2c(c1)[C@]1(C[C@H]1c1ccc3c(-c4ccc(OCCN(C)C)cc4)n[nH]c3c1)C(=O)N2` (relative stereo) [Example A103, (1R*,2S*)-2-(3-(4-(2-(dimethylamino)ethoxy)phenyl)-1H-indazol-6-yl)-5′-methoxyspiro[cyclopropane-1,3′-indolin]-2′-one 2,2,2-trifluoroacetate] are under 100 nM, under 100 nM and under 50%.
On the same counts, the results for `COc1ccc2c(c1)[C@]1(C[C@H]1c1ccc3c(-c4ccc(N5CCN(C)CC5)nc4)n[nH]c3c1)C(=O)N2C` (relative stereo) [Example A104, (1R*,2S*)-5′-methoxy-1′-methyl-2-(3-(6-(4-methylpiperazin-1-yl)pyridin-3-yl)-1H-indazol-6-yl)spiro[cyclopropane-1,3′-indolin]-2′-one bis(2,2,2-trifluoroacetate)] are under 100 nM, under 100 nM and under 50%.
As to `CCc1ccc2c(c1)[C@]1(C[C@H]1c1ccc3c(-c4ccc(N5CCN(C)CC5)cc4)n[nH]c3c1)C(=O)N2` (relative stereo) [Example A142, (1R*,2S*)-5′-ethyl-2-(3-(4-(4-methylpiperazin-1-yl)phenyl)-1H-indazol-6-yl)spiro[cyclopropane-1,3′-indolin]-2′-one 2,2,2-trifluoroacetate], the IC50 on human PLK4 (read-out: PLK4 IC50 Ranges) and at Aurora B (read-out: Aurora B IC50 Ranges) was under 100 nM throughout.
Consider `CN1CCN(c2ccc(-c3n[nH]c4cc([C@@H]5C[C@@]56C(=O)N(C)c5ccccc56)ccc34)cn2)CC1` (relative stereo) [Example A93, (1R*,2S*)-1′-methyl-2-(3-(6-(4-methylpiperazin-1-yl)pyridin-3-yl)-1H-indazol-6-yl)spiro[cyclopropane-1,3′-indolin]-2′-one bis(2,2,2-trifluoroacetate)], for which the IC50 at human PLK4 (read-out: PLK4 IC50 Ranges) and at Aurora B (read-out: Aurora B IC50 Ranges) was under 100 nM each time. The compound further yielded an inhibition at 1 µM at Aurora A of over 50%.
In the case of `CN1C(=O)[C@@]2(C[C@H]2c2ccc3c(/C=C/c4ccc(N5CCNCC5)cc4)n[nH]c3c2)c2ccccc21` (relative stereo) [Example A89, (1R*,2S*)-(E)-1′-methyl-2-(3-(4-(piperazin-1-yl)styryl)-1H-indazol-6-yl)spiro[cyclopropane-1,3′-indolin]-2′-one 2,2,2-trifluoroacetate], the IC50 against human PLK4 and at Aurora B was under 100 nM each time. Moreover, the inhibition at 1 µM against Aurora A is over 50%.
On to `CCN1CCN(c2ccc(-c3n[nH]c4cc([C@@H]5C[C@@]56C(=O)Nc5ccc(OC)cc56)ccc34)cc2)CC1` (relative stereo) [Example A98, (1R*,2S*)-2-(3-(4-(4-ethylpiperazin-1-yl)phenyl)-1H-indazol-6-yl)-5′-methoxyspiro[cyclopropane-1,3′-indolin]-2′-one 2,2,2-trifluoroacetate], for which the concentration for half-maximal inhibition (IC50) on human PLK4 and at Aurora B (read-out: Aurora B IC50 Ranges) was under 100 nM throughout. The inhibition at 1 µM on Aurora A was under 50%.
Regarding `COc1ccc2c(c1)[C@]1(C[C@H]1c1ccc3c(-c4cccc(CO)c4)n[nH]c3c1)C(=O)N2` (relative stereo) [Example A43, (1R*,2S*)-2-(3-(3-(hydroxymethyl)phenyl)-1H-indazol-6-yl)-5′-methoxy spiro[cyclopropane-1,3′-indolin]-2′-one 2,2,2-trifluoroacetate], the 50% inhibitory concentration (IC50) at human PLK4 (read-out: PLK4 IC50 Ranges) and at Aurora B (read-out: Aurora B IC50 Ranges) was under 100 nM throughout. This compound also showed an inhibition at 1 µM against Aurora A of under 50%.
In the case of `COc1cc2c(cc1OC)[C@]1(C[C@H]1c1ccc3c(-c4cccc(CN5CCOCC5)c4)n[nH]c3c1)C(=O)N2` (relative stereo) [Example A143, (1R*,2S*)-5′,6′-dimethoxy-2-(3-(3-(morpholinomethyl)phenyl)-1H-indazol-6-yl)spiro[cyclopropane-1,3′-indolin]-2′-one 2,2,2-trifluoroacetate], the IC50 on human PLK4 (read-out: PLK4 IC50 Ranges) is over 1000 nM.
In the case of `Cc1cc(/C=C/c2n[nH]c3cc([C@@H]4C[C@@]45C(=O)Nc4ccccc45)ccc23)ccn1` (relative stereo) [Example A161, (1R*,2S*)-2-(3-((E)-2-(2-methylpyridin-4-yl)vinyl)-1H-indazol-6-yl)spiro[cyclopropane-1,3′-indolin]-2′-one], the IC50 on human PLK4 (read-out: PLK4 IC50 Ranges) and at Aurora B (read-out: Aurora B IC50 Ranges) was under 100 nM throughout. Further, the inhibition at 1 µM against Aurora A is over 50%.
Regarding `COc1ccc2c(c1)[C@]1(C[C@H]1c1ccc3c(-c4ccc(N5CCN(C)CC5)cc4)n[nH]c3c1)C(=O)N2` (relative stereo) [Example A38, (1R*,2S*)-5′-Methoxy-2-(3-(4-(4-methylpiperazin-1-yl)phenyl)-1H-indazol-6-yl)spiro[cyclopropane-1,3′-indolin]-2′-one], the IC50 at human PLK4 and at Aurora B (read-out: Aurora B IC50 Ranges) was under 100 nM each time. The compound further had an inhibition at 1 µM against Aurora A of under 50%.
For `CN1C(=O)[C@@]2(C[C@H]2c2ccc3c(/C=C/c4ccc(CN5CCCCC5)cc4)n[nH]c3c2)c2ccccc21` (relative stereo) [Example A95, (1R*,2S*)-(E)-1′-methyl-2-(3-(4-(piperidin-1-ylmethyl)styryl)-1H-indazol-6-yl)spiro[cyclopropane-1,3′-indolin]-2′-one 2,2,2-trifluoroacetate], the IC50 at human PLK4 (read-out: PLK4 IC50 Ranges) and on Aurora B (read-out: Aurora B IC50 Ranges) was under 100 nM in each case.
As to `COc1ccc2c(c1)[C@]1(C[C@H]1c1ccc3c(/C=C/c4ccc(CN5[C@H](C)CCC[C@@H]5C)cc4)n[nH]c3c1)C(=O)N2` [Example A203, (1R,2S)-(E)-2-(3-(4-((cis-2,6-dimethylpiperidin-1-yl)methyl)styryl)-1H-indazol-6-yl)-5′-methoxyspiro[cyclopropane-1,3′-indolin]-2′-one 2,2,2-trifluoroacetate], the inhibition at 1 µM at Aurora A is over 50%.
`COc1ccc2c(c1)[C@]1(C[C@H]1c1ccc3c(-c4cccc(CN5CCCCC5)c4)n[nH]c3c1)C(=O)N2` (relative stereo) [Example A44, (1R*,2S*)-5′-methoxy-2-(3-(3-(piperidin-1-ylmethyl)phenyl)-1H-indazol-6-yl)spiro[cyclopropane-1,3′-indolin]-2′-one 2,2,2-trifluoroacetate] registered an inhibition at 1 µM against Aurora A of under 50%.
On the same count and under the same terms, then `CN1CCC(Oc2ccc(/C=C/c3n[nH]c4cc([C@@H]5C[C@@]56C(=O)Nc5ccccc56)ccc34)cc2)CC1` [Example A78, (1R,2S)-(E)-2-(3-(4-(1-methylpiperidin-4-yloxy)styryl)-1H-indazol-6-yl)spiro[cyclopropane-1,3′-indolin]-2′-one 2,2,2-trifluoroacetate salt], with over 50%.
Same read-out and setting: the value for `O=C1Nc2ccccc2[C@]12C[C@H]2c1ccc2c(/C=C/c3ccc(CCN4CCOCC4)cc3)n[nH]c2c1` [Example A205, (1R,2S)-(E)-2-(3-(4-(2-morpholinoethyl)styryl)-1H-indazol-6-yl)spiro[cyclopropane-1,3′-indolin]-2′-one 2,2,2-trifluoroacetate] was over 50%.
